Reference: article PMC11577759, “The structure of lipopeptides impacts their antiviral activity and mode of action against SARS-CoV-2 in vitro” (Applied and Environmental Microbiology, 2024)
Read-outs that look alike come from different tables or passages of the source. Marks after values point to notes of the source that are not given here.

Tests used:
SARS-CoV-2 [1] = assay: Replication / antiviral assay, viral RNA in supernatant by RT-qPCR; assay type: cell-based; settings: for Reduction of viral RNA concentration: serum diluted five times, vs infected cells (Fig. 6)
SARS-CoV-2 [2] = settings: surfactin 35, WLIP 20, fengycin 50, caspofungin 100 µg/mL; 100% = untreated infected cells at 37°C
Protocol: To determine the impact of lipopeptides on the fusion step, intracellular viral RNA was quantified after infection of cells with SARS-CoV-2 but before the budding step. […] The cells were pre-chilled for 15 min on ice. The cells were infected with SARS-CoV-2 (MOI of 10) in DMEM + 2% FBS and incubated for 2 h on ice with gentle agitation. The inoculum was removed, and the cells were gently washed three times with ice-cold DPBS. The positive control was inactivated to determine the basal viral RNA concentration after binding of the virus. The lipopeptides were added to room temperature DMEM + 2% (vol/vol) FBS and incubated at 37°C for 7 h. […] The cells were rinsed with DPBS, and the wells were dried. The samples were inactivated for 30 min at 70°C before quantification of the viral RNA by RT-qPCR. Every sample was tested in triplicate.

SARS-CoV-2 [3] = assay: Binding inhibition: pre-infection treatment of cells; assay type: cell-based; settings: cells pre-treated and cleared from unbound lipopeptide before infection; fengycin 50 µg/mL
Protocol: For the binding inhibition assays, four different conditions (Fig. 1) were tested to assess the potential of lipopeptides to inhibit the attachment of SARS-CoV-2 to cells in different settings. […] In these assays, SARS-CoV-2 was used at an MOI of 10, and every sample was tested in triplicate. Some steps were performed at 4°C to rigidify the cellular and viral membranes, allowing the virus to bind to the cells but not fuse with the […], as detailed below.
The cell supernatant was discarded, and the lipopeptides were added to the cells, which were subsequently incubated for 1 h at 37°C with gentle agitation. […] The viral stock was then added to the cells, which were subsequently incubated on ice for 1 h with gentle agitation.

Vero E6 cells = assay: Cytotoxicity, CyQUANT XTT cell viability assay; assay type: cell-based, Chlorocebus sp.; settings: 72 h
Protocol: Chlorocebus sp. kidney epithelial cells (Vero E6; ATCC VERO C1008) were cultured in Dulbecco’s Modified Eagle medium (DMEM) High Glucose w/ Stable Glutamine w/ Sodium Pyruvate (VWR, USA) supplemented with 2% (vol/vol) of decomplemented fetal bovine serum (FBS, Biowest, France) and 1% (vol/vol) Penicillin-Streptomycin (VWR, USA). The cells were grown at 37°C in a humidified 5% CO2 atmosphere. Cells were routinely passaged when they reached 100% confluence and were passaged until passage 15.
The cytotoxic activity of the lipopeptides was assessed using a CyQUANT XTT Cell Viability Assay (Thermo Fisher Scientific) according to the manufacturer’s instructions. […] The cells were then incubated for 72 h at 37°C. The kit was then used following the manufacturer’s instructions, and the plates were read at 450 nm and 660 nm using a Multiskan GO Microplate Spectrophotometer (Thermo Fisher Scientific). The percentage of viable cells was calculated as (AT450 − AT660 − AB450) / (AC450 − AC660) × 100%, where AT450, AT660, AB450, AC450, and AC660 represent the absorbance of the tested well at 450 nm, of the tested well at 660 nm, of the blank (only medium) at 450 nm, of the control cells at 450 nm, and of the control cells at 660 nm, respectively. One hundred percent viability corresponds to the viability of uninfected cells. DMSO concentrations ranging from 0.5% (vol/vol) to 0.001% (vol/vol) were used as a negative control for the assay. Every sample was tested in triplicate.

SARS-CoV-2 [4] = assay type: cell-based; settings: cells pre-treated, surfactin 35, WLIP 20, fengycin 50, caspofungin 100 µg/mL
SARS-CoV-2 [5] = assay: Binding inhibition: pre-treatment of SARS-CoV-2 and incubation on cells; assay type: cell-based; settings: virus pre-treated, surfactin 35, WLIP 20, fengycin 50, caspofungin 100 µg/mL

Substance: Fengycin
- Reduction of viral RNA concentration (SARS-CoV-2 [1]; 24 h pi, surfactin 35, WLIP 20, fengycin 50, caspofungin 100 µg/mL): did not reduce the RNA concentration
- Reduction of viral RNA concentration (SARS-CoV-2 [1]; 72 h pi, surfactin 35, WLIP 20, fengycin 50, caspofungin 100 µg/mL): 0.6 log
- EC50 (half maximal effective concentration) (SARS-CoV-2 [1]; SARS-CoV-2 MOI 0.01, Vero E6, viral RNA at 72 h pi by RT-qPCR, mean (standard deviation)): 71.7 (20.7) µg/mL
- Reduction in viral RNA (SARS-CoV-2 [1]; surfactin 35, WLIP 20, fengycin 50, caspofungin 100 µg/mL, 72 h (Fig. 5)): 3.2 log
- Fusion percentage (SARS-CoV-2 [2]): 17.2%
- Binding percentage of SARS-CoV-2 to cells (SARS-CoV-2 [3]): 54%
- Cell viability (Vero E6 cells; 100 µg/mL, Vero E6): 64.1%
- IC50 (half maximal inhibitory concentration, cytotoxicity) (Vero E6 cells; Vero E6 cells, XTT, mean (standard deviation), fengycin and caspofungin determined at higher concentrations in a subsequent experiment): 295.3 (28.3)^b µg/mL
- Cell viability (Vero E6 cells; surfactin 35, WLIP 20, fengycin 50, caspofungin 100 µg/mL, Vero E6 (Fig. 5)): 89.9%
- Binding percentage of SARS-CoV-2 to cells (SARS-CoV-2 [4]): 11.3%
- Binding percentage of SARS-CoV-2 to cells (SARS-CoV-2 [5]): 21.7%
